{"source": "ChEMBL document CHEMBL1138436", "about": "“Biological activity and chemistry of taxoids from the Japanese yew, Taxus cuspidata” (J Nat Prod, 2004)", "format_in_all_cases": "functional", "key": {"St-4": {"system": "St-4", "assay": "Growth inhibition of human St-4 cells"}, "MCF7": {"system": "MCF7", "assay": "Growth inhibition of human MCF7 cells"}, "DMS-114": {"system": "DMS-114", "assay": "Growth inhibition of human DMS114 cells"}, "MKN-7": {"system": "MKN-7", "assay": "Growth inhibition of human MKN7 cells"}, "HCT-15": {"system": "HCT-15", "assay": "Growth inhibition of human HCT15 cells"}, "HT-29": {"system": "HT-29", "assay": "Growth inhibition of human HT-29 cells"}, "MDA-MB-231": {"system": "MDA-MB-231", "assay": "Growth inhibition of human MDA-MB-231 cells"}, "NCI-H226": {"system": "NCI-H226", "assay": "Growth inhibition of human NCI-H226 cells"}, "DU-145": {"system": "DU-145", "assay": "Growth inhibition of human DU145 cells"}, "HCC 2998": {"system": "HCC 2998", "assay": "Growth inhibition of human HCC2998 cells"}, "PC-3": {"system": "PC-3", "assay": "Growth inhibition of human PC3 cells"}, "MKN-74": {"system": "MKN-74", "assay": "Growth inhibition of human MKN74 cells"}, "KM12": {"system": "KM12", "assay": "Growth inhibition of human KM12 cells"}, "A549": {"system": "A549", "assay": "Growth inhibition of human A549 cells"}, "SF-268": {"system": "SF-268", "assay": "Growth inhibition of human SF268 cells"}, "[1]": {"conditions": "read-out: LC50 (the source's name)"}, "[2]": {"conditions": "read-out: pLC50 (the source's name) (converted)"}}, "data": [{"compound": "C=C1[C@@H](OC(=O)/C=C/c2ccccc2)C[C@H](OC(C)=O)[C@]2(C)[C@@H]1C[C@]1(C(C)(C)O)C[C@H](OC(C)=O)C(C)=C1[C@@H](OC(=O)c1ccccc1)[C@@H]2OC(C)=O", "note": "[TAXUSPINE A]", "values": [{"measurement": "GI50", "setting": "St-4; read-out: GI50", "value": 24, "unit": "µM"}, {"measurement": "CC50", "setting": "St-4; [1]", "value": "> 100", "unit": "µM"}, {"measurement": "TGI", "setting": "St-4; read-out: TGI", "value": "> 100", "unit": "µM"}, {"measurement": "GI50", "setting": "St-4; read-out: pGI50 (converted)", "value": 24, "unit": "µM"}, {"measurement": "CC50", "setting": "St-4; [2]", "value": 100, "unit": "µM"}, {"measurement": "TGI", "setting": "St-4; read-out: pTGI (converted)", "value": 100, "unit": "µM"}, {"measurement": "GI50", "setting": "MCF7; read-out: GI50", "value": 9.3, "unit": "µM"}, {"measurement": "CC50", "setting": "MCF7; [1]", "value": "> 100", "unit": "µM"}, {"measurement": "TGI", "setting": "MCF7; read-out: TGI", "value": "> 100", "unit": "µM"}, {"measurement": "GI50", "setting": "MCF7; read-out: pGI50 (converted)", "value": 9.33, "unit": "µM"}, {"measurement": "CC50", "setting": "MCF7; [2]", "value": 100, "unit": "µM"}, {"measurement": "TGI", "setting": "MCF7; read-out: pTGI (converted)", "value": 100, "unit": "µM"}, {"measurement": "GI50", "setting": "DMS-114; read-out: GI50", "value": 7.8, "unit": "µM"}, {"measurement": "CC50", "setting": "DMS-114; [1]", "value": "> 100", "unit": "µM"}, {"measurement": "TGI", "setting": "DMS-114; read-out: TGI", "value": "> 100", "unit": "µM"}, {"measurement": "GI50", "setting": "DMS-114; read-out: pGI50 (converted)", "value": 7.76, "unit": "µM"}, {"measurement": "TGI", "setting": "MKN-7", "value": "> 100", "unit": "µM"}, {"measurement": "GI50", "setting": "MKN-7; read-out: GI50", "value": 5.1, "unit": "µM"}, {"measurement": "CC50", "setting": "MKN-7; [1]", "value": "> 100", "unit": "µM"}, {"measurement": "GI50", "setting": "MKN-7; read-out: pGI50 (converted)", "value": 5.13, "unit": "µM"}, {"measurement": "GI50", "setting": "HCT-15; read-out: GI50", "value": 29, "unit": "µM"}, {"measurement": "CC50", "setting": "HCT-15; [1]", "value": "> 100", "unit": "µM"}, {"measurement": "TGI", "setting": "HCT-15; read-out: TGI", "value": "> 100", "unit": "µM"}, {"measurement": "GI50", "setting": "HCT-15; read-out: pGI50 (converted)", "value": 28.8, "unit": "µM"}, {"measurement": "CC50", "setting": "HCT-15; [2]", "value": 100, "unit": "µM"}, {"measurement": "TGI", "setting": "HCT-15; read-out: pTGI (converted)", "value": 100, "unit": "µM"}, {"measurement": "GI50", "setting": "HT-29; read-out: GI50", "value": 43, "unit": "µM"}, {"measurement": "CC50", "setting": "HT-29; [1]", "value": "> 100", "unit": "µM"}, {"measurement": "TGI", "setting": "HT-29; read-out: TGI", "value": "> 100", "unit": "µM"}, {"measurement": "GI50", "setting": "HT-29; read-out: pGI50 (converted)", "value": 43.7, "unit": "µM"}, {"measurement": "TGI", "setting": "HT-29; read-out: pTGI (converted)", "value": 100, "unit": "µM"}, {"measurement": "GI50", "setting": "MDA-MB-231; read-out: GI50", "value": 16, "unit": "µM"}, {"measurement": "CC50", "setting": "MDA-MB-231; [1]", "value": "> 100", "unit": "µM"}, {"measurement": "TGI", "setting": "MDA-MB-231; read-out: TGI", "value": "> 100", "unit": "µM"}, {"measurement": "GI50", "setting": "MDA-MB-231; read-out: pGI50 (converted)", "value": 16.2, "unit": "µM"}, {"measurement": "CC50", "setting": "MDA-MB-231; [2]", "value": 100, "unit": "µM"}, {"measurement": "TGI", "setting": "MDA-MB-231; read-out: pTGI (converted)", "value": 100, "unit": "µM"}, {"measurement": "GI50", "setting": "NCI-H226; read-out: GI50", "value": 21, "unit": "µM"}, {"measurement": "CC50", "setting": "NCI-H226; [1]", "value": "> 100", "unit": "µM"}, {"measurement": "TGI", "setting": "NCI-H226; read-out: TGI", "value": "> 100", "unit": "µM"}, {"measurement": "GI50", "setting": "NCI-H226; read-out: pGI50 (converted)", "value": 83.2, "unit": "µM"}, {"measurement": "CC50", "setting": "NCI-H226; [2]", "value": 100, "unit": "µM"}, {"measurement": "TGI", "setting": "NCI-H226; read-out: pTGI (converted)", "value": 100, "unit": "µM"}, {"measurement": "TGI", "setting": "DU-145", "value": "> 100", "unit": "µM"}, {"measurement": "GI50", "setting": "DU-145; read-out: GI50", "value": 100, "unit": "µM"}, {"measurement": "CC50", "setting": "DU-145; [1]", "value": "> 100", "unit": "µM"}, {"measurement": "GI50", "setting": "DU-145; read-out: pGI50 (converted)", "value": 100, "unit": "µM"}, {"measurement": "CC50", "setting": "DU-145; [2]", "value": 100, "unit": "µM"}, {"measurement": "TGI", "setting": "HCC 2998", "value": "> 100", "unit": "µM"}, {"measurement": "GI50", "setting": "HCC 2998; read-out: GI50", "value": 26, "unit": "µM"}, {"measurement": "CC50", "setting": "HCC 2998; [1]", "value": "> 100", "unit": "µM"}, {"measurement": "GI50", "setting": "HCC 2998; read-out: pGI50 (converted)", "value": 26.3, "unit": "µM"}, {"measurement": "GI50", "setting": "PC-3; read-out: GI50", "value": 5.2, "unit": "µM"}, {"measurement": "CC50", "setting": "PC-3; [1]", "value": "> 100", "unit": "µM"}, {"measurement": "TGI", "setting": "PC-3; read-out: TGI", "value": "> 100", "unit": "µM"}, {"measurement": "GI50", "setting": "PC-3; read-out: pGI50 (converted)", "value": 5.25, "unit": "µM"}, {"measurement": "TGI", "setting": "PC-3; read-out: pTGI (converted)", "value": 100, "unit": "µM"}, {"measurement": "GI50", "setting": "MKN-74; read-out: GI50", "value": "> 100", "unit": "µM"}, {"measurement": "CC50", "setting": "MKN-74; [1]", "value": "> 100", "unit": "µM"}, {"measurement": "GI50", "setting": "MKN-74; read-out: pGI50 (converted)", "value": 9.55, "unit": "µM"}, {"measurement": "CC50", "setting": "MKN-74; [2]", "value": 100, "unit": "µM"}, {"measurement": "TGI", "setting": "MKN-74; read-out: pTGI (converted)", "value": 100, "unit": "µM"}, {"measurement": "GI50", "setting": "KM12; read-out: GI50", "value": 6.4, "unit": "µM"}, {"measurement": "CC50", "setting": "KM12; [1]", "value": "> 100", "unit": "µM"}, {"measurement": "TGI", "setting": "KM12; read-out: TGI", "value": "> 100", "unit": "µM"}, {"measurement": "GI50", "setting": "KM12; read-out: pGI50 (converted)", "value": 6.46, "unit": "µM"}, {"measurement": "CC50", "setting": "KM12; [2]", "value": 100, "unit": "µM"}, {"measurement": "TGI", "setting": "KM12; read-out: pTGI (converted)", "value": 100, "unit": "µM"}, {"measurement": "GI50", "setting": "A549; read-out: GI50", "value": 9.6, "unit": "µM"}, {"measurement": "CC50", "setting": "A549; [1]", "value": "> 100", "unit": "µM"}, {"measurement": "TGI", "setting": "A549; read-out: TGI", "value": "> 100", "unit": "µM"}, {"measurement": "GI50", "setting": "A549; read-out: pGI50 (converted)", "value": 9.55, "unit": "µM"}, {"measurement": "CC50", "setting": "A549; [2]", "value": 100, "unit": "µM"}, {"measurement": "TGI", "setting": "A549; read-out: pTGI (converted)", "value": 100, "unit": "µM"}, {"measurement": "TGI", "setting": "SF-268", "value": "> 100", "unit": "µM"}, {"measurement": "GI50", "setting": "SF-268; read-out: GI50", "value": 43, "unit": "µM"}]}]}
